Source: US12122785B2, “Substituted pyridines, pyridazines, pyrimidines, and 1,2,4-triazines as TYK2 inhibitors” (Sudo Biosciences Limited, priority 2021, dated 2024)

Assays:
[1] = test system: IFNγ-stimulated HEK-Blue IFNγ reporter cells; test: HEK-Blue IFNγ reporter assay (STAT1-inducible SEAP) for determining selectivity; type: cell-based; conditions: 50 ng/mL human recombinant IFNγ, 24 hours, read-out: IFN-γ SEAP selectivity assay IC50
Protocol: (§1) Example B-3: HEK-Blue™ IL-2 and IFNγ Reporter Assays for Determining Selectivity
(§2) HEK-Blue™ IL-2 and IFNγ reporter cells with a stably-integrated cytokine receptor and STAT5 or STAT1 express STAT-inducible secreted embryonic alkaline phosphatase (SEAP) reporter gene upon cytokine stimulation. These cells were plated in DMEM (Gibco) containing 10% heat-inactivated FBS (Gibco) and 100 U/mL PenStrep (Gibco) at 37° C. under 5% CO2 conditions for 20-22 hours. The cells were then pretreated with serially diluted test compounds for 60 min prior to stimulation with either 4 ng/mL human recombinant IL-2 (Miltenyl Biotech) or 50 ng/mL human recombinant IFNγ (InvivoGen) for 24 hours. SEAP induction was measured using the QUANTI-Blue™ Solution (InvivoGen) according to the manufacturer's instructions.

[2] = test system: TYK2 pseudokinase (JH2); IFNα-stimulated HEK-Blue IFNα/β cells; test: HEK-Blue IFNα/β reporter assay (STAT1-inducible SEAP) for profiling TYK2 pseudokinase (JH2) inhibition; type: cell-based; conditions: 1 ng/mL human recombinant IFNα, SEAP readout, read-out: IFNα (TYK2 inhibitory activity, IC50)
Protocol: (§3) Example B-1: HEK-Blue™ IL-23 and IFNα/β Reporter Assays for Profiling TYK2 Pseudokinase (JH2) Inhibition
(§4) HEK-Blue™ IL-23 and IFNα/β cells with a stably-integrated cytokine receptor and STAT3 or STAT1 express STAT-inducible secreted embryonic alkaline phosphatase (SEAP) reporter gene upon cytokine stimulation. These cells are plated in DMEM (Gibco) containing 10% heat-inactivated FBS (Gibco) and 100 U/mL PenStrep (Gibco) at 37° C. under 5% CO2 conditions for 20-22 hours. The cells are then pretreated with serially diluted test compounds for 60 min prior to stimulation with either 10 ng/mL human recombinant IL-23 (Miltenyl Biotech) or 1 ng/mL human recombinant IFNα (InvivoGen) for 22-24 hours for IL-23 or 16-18 h for IFNα. SEAP induction is measured using the QUANTI Blue™ Solution (InvivoGen) according to the manufacturer's instructions.

[3] = molecular target: T1, JAK1 kinase domain (JH1) (Homo sapiens, UniProt P23458); test: HTRF-based selectivity assay, JAK1 catalytic domain; type: biochemical; conditions: 21.43 μM ATP, read-out: JAK-JHI (IC50)
T1 construct: recombinant purified His or GST-tagged catalytic domain for each enzyme; made in house
Protocol: (§5) Example B-2: HTRF-Based Selectivity Assay
(§6) The ability of compounds to inhibit the activity of JAK1, JAK2, JAK3 and TYK2 is measured using a recombinant purified His or GST-tagged catalytic domain for each enzyme (JAK1, JAK2 and TYK2 are generated in-house; JAK3 was purchased from Carna biosciences, Cat #08-046) in an HTRF format biochemical assay. The reactions employs a commercial peptide substrate from Cisbio (Cat #62TK0PEC). The basic assay protocol is as follows: first, 2.5 μL of diluted compounds (4×) in DMSO are dispensed into a 384-well Optiplate. Next, 2.5 μL of enzyme (final concentrations for enzymes are: TYK2—700 ng/mL, JAK1—80.6 ng/mL, JAK2—2.1 ng/mL and JAK3—171.8 ng/mL) is added and incubated at RT for 5-20 min. Finally, 5 μl of mixture of 2×ATP [Final concentration 20 μM for TYK2, 21.43 μM for JAK1, 14.7 μM for JAK2 and 2.12 μM for JAK3]+2× Substrate [Final concentration 217 nM for TYK2, 454.7 nM for JAK1, 200 nM for JAK2 and 257.4 nM for JAK3] is added to 384 well Optiplate. Composition of Kinase assay buffer used in the assay is as follows: HEPES 50 mM, EGTA 1 mM, MgCl2 10 mM, DTT 2 mM, Tween-20 0.01% and water. Then the plates are shaken and then incubated at 26.5° C. for 60 min.

[4] = test system: IL-2-stimulated HEK-Blue IL-2 reporter cells; test: HEK-Blue IL-2 reporter assay (STAT5-inducible SEAP) for determining selectivity; type: cell-based; conditions: 4 ng/mL human recombinant IL-2, 24 hours
Protocol: as §1, §2

[5] = molecular target: T2, TYK2 kinase domain (JH1) (Homo sapiens, UniProt P29597); test: HTRF-based selectivity assay, TYK2 catalytic domain; type: biochemical; conditions: 20 μM ATP
T2 construct: recombinant purified His or GST-tagged catalytic domain for each enzyme; made in house
T2 sequence (P29597 897-1176 limits assumed): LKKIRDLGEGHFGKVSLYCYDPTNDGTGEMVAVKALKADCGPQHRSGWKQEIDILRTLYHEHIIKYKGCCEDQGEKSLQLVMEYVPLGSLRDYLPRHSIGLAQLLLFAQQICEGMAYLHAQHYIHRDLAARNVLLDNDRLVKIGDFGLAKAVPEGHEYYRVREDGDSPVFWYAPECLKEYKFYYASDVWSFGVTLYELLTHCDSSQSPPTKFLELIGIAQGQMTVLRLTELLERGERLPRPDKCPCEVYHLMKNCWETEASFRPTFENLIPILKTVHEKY
Protocol: as §5, §6

[6] = test system: TYK2 pseudokinase (JH2); IL-23-stimulated HEK-Blue IL-23 cells; test: HEK-Blue IL-23 reporter assay (STAT3-inducible SEAP) for profiling TYK2 pseudokinase (JH2) inhibition; type: cell-based; conditions: 10 ng/mL human recombinant IL-23, SEAP readout, read-out: IL23 (TYK2 inhibitory activity, IC50)
Protocol: as §3, §4

[7] = molecular target: T3, JAK2 kinase domain (JH1) (Homo sapiens, UniProt O60674); test: HTRF-based selectivity assay, JAK2 catalytic domain; type: biochemical; conditions: 14.7 μM ATP
T3 construct: recombinant purified His or GST-tagged catalytic domain for each enzyme; made in house
Protocol: as §5, §6

T3 sequence (O60674 849-1124 limits assumed): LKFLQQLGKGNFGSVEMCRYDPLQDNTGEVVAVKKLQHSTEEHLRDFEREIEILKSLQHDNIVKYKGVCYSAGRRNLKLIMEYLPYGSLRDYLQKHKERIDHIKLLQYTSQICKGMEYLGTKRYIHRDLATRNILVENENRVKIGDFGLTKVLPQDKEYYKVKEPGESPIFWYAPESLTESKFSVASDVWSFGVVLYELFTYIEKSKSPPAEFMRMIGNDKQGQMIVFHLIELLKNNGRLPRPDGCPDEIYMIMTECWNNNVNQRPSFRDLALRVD
T1 sequence (P23458 875-1153 limits assumed): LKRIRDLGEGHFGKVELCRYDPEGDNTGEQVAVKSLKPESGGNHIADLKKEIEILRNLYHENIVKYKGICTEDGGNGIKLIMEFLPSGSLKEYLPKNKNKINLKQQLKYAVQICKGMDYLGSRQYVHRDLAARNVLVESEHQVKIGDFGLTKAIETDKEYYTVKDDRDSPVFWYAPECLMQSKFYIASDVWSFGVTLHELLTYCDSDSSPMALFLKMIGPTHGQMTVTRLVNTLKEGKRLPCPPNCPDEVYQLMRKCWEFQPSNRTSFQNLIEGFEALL

IC50 [3] [nM] | IC50 [5] [nM] | IC50 [7] [nM] | Structure (SMILES) | IC50 [1] [nM] | IC50 [2] [nM] | IC50 [4] [nM] | IC50 [6] [nM]
> 1000 | > 1000 | > 1000 | [2H]C([2H])([2H])NC(=O)c1cnc(NC(=O)NC)cc1Nc1cccc2c1N(C)Cc1cn(C)nc1-2 [Compound 25, 4-((2,5-dimethyl-4,5-dihydro-2H-pyrazolo[4,3-c]quinolin-6-yl)amino)-N-(methyl-d3)-6-(3-methylureido)nicotinamide] | > 1000 | < 30 | > 1000 | < 30
> 1000 | > 1000 | > 1000 | [2H]C([2H])([2H])NC(=O)c1cnc(NC(=O)C2CC2)cc1Nc1cccc2c1N(C)Cc1cn(C3COC3)nc1-2 [Compound 29, 6-(cyclopropanecarboxamido)-N-(methyl-d3)-4-((5-methyl-2-(oxetan-3-yl)-4,5-dihydro-2H-pyrazolo[4,3-c]quinolin-6-yl)amino)nicotinamide] | > 1000 | < 30 | > 1000 | < 30
 |  |  | [2H]C([2H])([2H])NC(=O)c1nnc(NC(=O)C2CC2)cc1Nc1cccc2c1N(C)C([2H])([2H])c1ccnn1-2 [Compound 58, 6-(cyclopropanecarboxamido)-N-(methyl-d3)-4-((5-methyl-4,5-dihydropyrazolo[1,5-a]quinoxalin-6-yl-4,4-d2)amino)pyridazine-3-carboxamide] | 300 to 1000 | < 30 | > 1000 | < 30
 |  |  | [2H]C([2H])([2H])NC(=O)c1cnc(NC(=O)C2CC2)cc1Nc1cccc2c1N(C)C([2H])([2H])c1ccnn1-2 [Compound 59, 6-(cyclopropanecarboxamido)-N-(methyl-d3)-4-((5-methyl-4,5-dihydropyrazolo[1,5-a]quinoxalin-6-yl-4,4-d2)amino)nicotinamide] | 30 to 300 | < 30 | > 1000 | < 30
 |  |  | [2H]C([2H])([2H])NC(=O)c1cnc(N2CCN(C(C)C)C2=O)cc1Nc1cccc2c1N(C)C([2H])([2H])c1cn(C)nc1-2 [Compound 63, 4-((2,5-dimethyl-4,5-dihydro-2H-pyrazolo[4,3-c]quinolin-6-yl-4,4-d2)amino)-6-(3-isopropyl-2-oxoimidazolidin-1-yl)-N-(methyl-d3)nicotinamide] | > 1000 | 30 to 300 | > 1000 | < 30
> 1000 | > 1000 | > 1000 | [2H]C([2H])([2H])NC(=O)c1cnc(NC(=O)C2CC2)cc1Nc1nccc2c1N(C)Cc1cn(C)nc1-2 [Compound 64, 6-(cyclopropanecarboxamido)-4-((2,5-dimethyl-4,5-dihydro-2H-pyrazolo[4,3-c][1,7]naphthyridin-6-yl)amino)-N-(methyl-d3)nicotinamide] | 300 to 1000 | < 30 | > 1000 | < 30
> 1000 | > 1000 | > 1000 | [2H]C([2H])([2H])NC(=O)c1nnc(NC(=O)C2CC2)cc1Nc1nccc2c1N(C([2H])([2H])[2H])Cc1cn(C)nc1-2 [Compound 67, 6-(cyclopropanecarboxamido)-N-(methyl-d3)-4-((2-methyl-5-(methyl-d3)-4,5-dihydro-2H-pyrazolo[4,3-c][1,7]naphthyridin-6-yl)amino)pyridazine-3-carboxamide] |  | < 30 |  | < 30
 |  |  | [2H]C([2H])([2H])NC(=O)c1cnc(NC(=O)C2CC2)cc1Nc1nccc2c1N(C)Cc1cc(C)nn1-2 [Compound 71, 6-(cyclopropanecarboxamido)-4-((2,5-dimethyl-4,5-dihydropyrazolo[1,5-a]pyrido[3,4-e]pyrazin-6-yl)amino)-N-(methyl-d3)nicotinamide] | > 1000 | < 30 | > 1000 | < 30
 |  |  | [2H]C([2H])([2H])NC(=O)c1nnc(NC(=O)C2CC2)cc1Nc1nccc2c1N(C)C([2H])([2H])c1cc(C)nn1-2 [Compound 73, 6-(cyclopropanecarboxamido)-4-((2,5-dimethyl-4,5-dihydropyrazolo[1,5-a]pyrido[3,4-e]pyrazin-6-yl-4,4-d2)amino)-N-(methyl-d3)pyridazine-3-carboxamide] | 30 to 300 | < 30 | > 1000 | < 30
 |  |  | [2H]C([2H])([2H])NC(=O)c1nnc(NC(=O)NC)cc1Nc1nccc2c1N(C)C([2H])([2H])c1cn(C)nc1-2 [Compound 74, 4-((2,5-dimethyl-4,5-dihydro-2H-pyrazolo[4,3-c][1,7]naphthyridin-6-yl-4,4-d2)amino)-N-(methyl-d3)-6-(3-methylureido)pyridazine-3-carboxamide] | 30 to 300 | < 30 | > 1000 | < 30
 |  |  | [2H]C([2H])([2H])NC(=O)c1nnc(NC(=O)N(C)C)cc1Nc1nccc2c1N(C)C([2H])([2H])c1cn(C)nc1-2 [Compound 75, 4-((2,5-dimethyl-4,5-dihydro-2H-pyrazolo[4,3-c][1,7]naphthyridin-6-yl-4,4-d2)amino)-6-(3,3-dimethylureido)-N-(methyl-d3)pyridazine-3-carboxamide] | > 1000 | 30 to 300 | > 1000 | < 30
 |  |  | [2H]C([2H])([2H])NC(=O)c1cnc(NC(=O)C2CC2)cc1Nc1nccc2c1N(C)C([2H])([2H])c1cc(C)nn1-2 [Compound 76, 6-(cyclopropanecarboxamido)-4-((2,5-dimethyl-4,5-dihydropyrazolo[1,5-a]pyrido[3,4-e]pyrazin-6-yl-4,4-d2)amino)-N-(methyl-d3)nicotinamide] | 300 to 1000 | < 30 | > 1000 | < 30
 |  |  | [2H]C([2H])([2H])NC(=O)c1cnc(NC(=O)C2CC2)cc1Nc1nccc2c1N(C)C([2H])([2H])c1cn(C)nc1-2 [Compound 77, 6-(cyclopropanecarboxamido)-4-((2,5-dimethyl-4,5-dihydro-2H-pyrazolo[4,3-c][1,7]naphthyridin-6-yl-4,4-d2)amino)-N-(methyl-d3)nicotinamide] | 300 to 1000 | < 30 | > 1000 | < 30
 |  |  | [2H]C([2H])([2H])NC(=O)c1nnc(NC(=O)NC)cc1Nc1nccc2c1N(C)Cc1cc(C)nn1-2 [Compound 79, 4-((2,5-dimethyl-4,5-dihydropyrazolo[1,5-a]pyrido[3,4-e]pyrazin-6-yl)amino)-N-(methyl-d3)-6-(3-methylureido)pyridazine-3-carboxamide] | > 1000 | 30 to 300 | > 1000 | < 30
